Test results as given in patent US20220177476A1, “Crystal Forms of (S)-4-(8-amino-3-(1-(but-2-ynoyl)-pyrrolidin-2-yl)imidazo[1,5-a]pyrazin-1-yl)-n-(pyridin-2-yl)benzamide” (Acerta Pharma B.V., priority 2015, published 2022).
Where two headings read alike, the source gives them in different places.

Tests used:
[1] = Aqueous solubility of salts after three hours equilibration without pH adjustment; type: physicochemical; conditions: water
Experimental: Characterization of fumarate salt, maleate salt, phosphate salt and L-tartrate salt was conducted using ^1H NMR spectroscopy, TG-FTIR, DSC, dynamic vapor sorption, optical microscopy, high-performance liquid chromatography (HPLC) purity, laser diffraction, approximate bulk and tapped density, and aqueous solubility analytical techniques.

[2] = Dynamic vapor sorption (DVS); type: physicochemical
Experimental: A gravimetric vapor sorption study was run using a standard procedure. Samples were run using a dynamic vapor sorption (DVS) analyzer. Sample sizes were approximately 10 mg. A moisture adsorption-desorption isotherm was performed as outlined below.

[3] = Bulk and tapped density of salts; type: physicochemical; conditions: 10 gram sample
[4] = for Solubility (mg/mL) after 24 hours equilibration: pure water at 25° C., pH 3.6-4.1
[5] = logP by potentiometric (pH-metric) technique, octanol/water; type: physicochemical; conditions: 25° C., 0.15 M KCl
Experimental: The logP of Formula (1) free base was determined using the potentiometric (pH-metric) technique. The sample was titrated in various ratios of octanol/water from pH 1.9-12.1 at concentrations of 1.1-0.5 mM at 25° C. in an ionic environment of 0.15 M KCl. The potentiometric data collected were used to calculate the logP of the neutral (2.03±0.01) and the cationic (−0.31±0.06) species.

[6] = pKa by ultraviolet (UV) spectrometric titration; type: physicochemical; conditions: for pKa: aqueous solution
Experimental: The pKa values for Formula (1) free base were determined and used to create the speciation plot shown in FIG. 47 to illustrate the species present as the Formula (1) passes through the gastrointestinal tract. The sample pKa values were determined using an ultraviolet (UV) spectrometric technique. The sample was initially titrated in a fast-UV triple titration between pH 2-12 at concentrations of 31-19 μM, under aqueous conditions. Three pKa values, with average values of ˜3.6, ˜5.8 and ˜12.0, were determined. The sample was subsequently titrated in six titrations, under aqueous conditions over a total range of pH 1.5-12.5 at concentrations of 30-18 μM.

[7] = Aqueous solubility of Formula (1) free base as a function of pH; type: physicochemical
From the text: The aqueous solubility of Formula (1) free base was examined as a function of pH.

[8] = Water content by Karl Fischer titration; type: physicochemical
[9] = Plasma exposure after single oral administration in fasted beagle dogs; type: in vivo; conditions: nine fasted beagle dogs, single oral administration of 6 mg/kg, oral capsule
Experimental: The plasma exposure of Forms I and II of the free base of Formula (1) were compared in nine fasted beagle dogs after a single oral administration of 6 mg/kg of either form using batches with a similar particle size distribution. The experiment was performed in 5 weekly phases, with the Form II phase last. […] There was a good in vitro in vivo correlation for the dissolution rates of Form 1 and Form II, and the performance of each form of Formula (1) when delivered by oral capsule to dogs.

[10] = Intrinsic dissolution rate (paddle over stationary disc); type: physicochemical
Experimental: The intrinsic dissolution rate (IDR) was measured for Forms I and II of the free base of Formula (1). IDR was measured using a paddle over stationary disc equipped dissolution apparatus with concentration determined using liquid chromatographic analysis against a standard. […] Form I has an IDR of 6.8 mg/cm^2/min in simulated gastric fluid (SGF) (pH 1.2) and an IDR of 0.44 mg/cm^2/min in pH 2.5 HCl/NaCl buffer. Form II has an IDR of 5.4 mg/cm^2/min in SGF and an IDR of 0.35 mg/cm^2/min in pH 2.5 HCl/NaCl buffer.

[11] = Aqueous solubility after equilibrating at 25° C. for three days (HPLC); type: physicochemical; conditions: water, equilibrated at 25° C. for three days, HPLC of filtered solution
Experimental: Finally, Form II was tested with respect to solubilities in various water-solvent mixtures and non-aqueous solvents. […] High-performance liquid chromatography (HPLC) was used to determine the concentration of Form II in the filtered solution at approximately 14 μg/mL, which translates into a critical water activity (aw) of about 0.59.

[12] = Relative stability of solid forms (water activity, suspension equilibration, storage); type: physicochemical; conditions: room temperature
From the text: Critical water activity is a measure of the relative thermodynamic stability of Form I in comparison to the trihydrate Form II. […] Suspension equilibration experiments in ethanol-water mixtures, each having a different water activity, affirmed this conclusion. Water activities included in the experiments were maintained at: about 0.35 (ethanol-water ratio of 95:5, PP502-P32), about 0.53 (ethanol-water ratio of 9:1, PP502-P33) and about 0.77 (ethanol-water ratio of 7:3, PP502-P34).
Because the DVS results of Form II indicate reversible moisture sorption-desorption behavior (see above), tests were performed to confirm that storage of the dehydrated Form II sample (i.e., Form IV) at about 60% RH would again lead to the trihydrate form (Form II). […]

[13] = six titrations, pH 1.5-12.5, 30-18 μM, aqueous

CC#CC(=O)N1CCC[C@H]1c1nc(-c2ccc(C(=O)Nc3ccccn3)cc2)c2c(N)nccn12.O=C(O)/C=C\C(=O)O [Maleate, (S)-4-(8-amino-3-(1-(but-2-ynoyl)pyrrolidin-2-yl)imidazo[1,5-α]pyrazin-1-yl)-N-(pyridin-2-yl)benzamide maleate]
Solubility (3 hours) [1]: 2200 µg/mL
Behavior in DVS: Δm (20-80% RH) [2]: fumarate, Δm~0.7%
maximum water content (saturation) at about 95% RH ([2]; DVS): approximately 5.8%
water content change between 20% and 80% RH ([2]; DVS): about 0.5%
Bulk density [3]: 0.35 g/mL
Tapped density [3]: 0.45 g/mL
solubility ([4]; 0.1 N HCl, Sigma #71763, pH after 24 hours 1.8): 37000 µg/mL
solubility ([4]; borate buffer (sample pH9), pH after 24 hours 4.7): 1200 µg/mL
solubility ([4]; buffer pH 5, pH after 24 hours 4.8): 4300 µg/mL
solubility ([4]; citrate buffer pH 3, pH after 24 hours 3.2): 8000 µg/mL
solubility ([4]; phosphate buffer pH 7, KH2PO4 (sample pH6.8), pH after 24 hours 4.8): 1200 µg/mL
solubility ([4]; phosphate buffer pH 7, KH2PO4 (sample pH7.4), pH after 24 hours 5.0): 800 µg/mL
Solubility (mg/mL) after 24 hours equilibration [4]: 2.3 mg/mL

CC#CC(=O)N1CCC[C@H]1c1nc(-c2ccc(C(=O)Nc3ccccn3)cc2)c2c(N)nccn12 [Formula (1), (S)-4-(8-amino-3-(1-(but-2-ynoyl)pyrrolidin-2-yl)imidazo[1,5-α]pyrazin-1-yl)-N-(pyridin-2-yl)benzamide]
solubility at 3 h ([1]; thermodynamic from solid): < 1000 µg/mL
logP of the neutral species [5]: 2.03±0.01
logP ([5]; read-out: logP of the cationic species): -0.31 ± 0.06
pKa ([6]; free base, Table 9, read-out: pKa): ~5.7
pKa ([6]; pH 1.5, six titrations, pH 1.5-12.5, 30-18 μM, aqueous, read-out: pKa, average value (third)): 12.12 ± 0.03
pKa ([6]; pH 2, fast-UV triple titration, pH 2-12, 31-19 μM, aqueous, read-out: pKa, average value (first)): ~3.6
pKa ([6]; pH 2, fast-UV triple titration, pH 2-12, 31-19 μM, aqueous, read-out: pKa, average value (second)): ~5.8
pKa ([6]; pH 2, fast-UV triple titration, pH 2-12, 31-19 μM, aqueous, read-out: pKa, average value (third)): ~12
pKa, average value (first) [6, 13]: 3.54±0.01
pKa, average value (second) [6, 13]: 5.77±0.01
solubility ([7]; aqueous HCl solution, pH 1, simulated gastric fluid, thermodynamic from solid, HCl solution having a pH of about 1, read-out: solubility in HCl solution): ≥ 150000 µg/mL
solubility ([7]; aqueous buffer solution, pH 5, aqueous buffer, thermodynamic from solid, effective pH at the end of the test 5.0, read-out: Solubility): 690 µg/mL
solubility ([7]; aqueous buffer solution, pH 7.3, aqueous buffer, thermodynamic from solid, effective pH at the end of the test 7.3, read-out: Solubility): 49 µg/mL
solubility ([7]; aqueous buffer solution, pH 8.9, aqueous buffer, thermodynamic from solid, effective pH at the end of the test 8.9, read-out: Solubility): 51 µg/mL
solubility ([7]; aqueous buffer solutions, aqueous buffer, thermodynamic from solid, pH 6.7 and greater, read-out: aqueous solubility, constant level): ~50 µg/mL
solubility ([7]; effective pH at the end of the test 6.7): 56 µg/mL
aqueous solubility, constant level ([7]; pH 6.7 and greater): about 50 μg/mL

CC#CC(=O)N1CCC[C@H]1c1nc(-c2ccc(C(=O)Nc3ccccn3)cc2)c2c(N)nccn12.O=C(O)C(O)C(O)C(=O)O [L-Tartrate, (S)-4-(8-amino-3-(1-(but-2-ynoyl)pyrrolidin-2-yl)imidazo[1,5-α]pyrazin-1-yl)-N-(pyridin-2-yl)benzamide L-tartrate]
Behavior in DVS: Δm (20-80% RH) [2]: ~0.7% (20-80% RH)
maximum water content (saturation) at about 95% RH ([2]; DVS): approximately 5.4%
water content at 50% RH ([2]; DVS): about 4.8%
water content change between 20% and 80% RH ([2]; DVS): about 0.7%
Bulk density [3]: 0.29 g/mL
Tapped density [3]: 0.50 g/mL

CC#CC(=O)N1CCC[C@H]1c1nc(-c2ccc(C(=O)Nc3ccccn3)cc2)c2c(N)nccn12.O=C(O)/C=C/C(=O)O [Fumarate, (S)-4-(8-amino-3-(1-(but-2-ynoyl)pyrrolidin-2-yl)imidazo[1,5-α]pyrazin-1-yl)-N-(pyridin-2-yl)benzamide fumarate]
Solubility (3 hours) [1]: ~1800 µg/mL
Behavior in DVS: Δm (20-80% RH) [2]: ~0.8% (20-80% RH)
maximum water content (saturation) at about 95% RH ([2]; DVS): approximately 6%
water content change between 20% and 80% RH ([2]; DVS): about 0.8%
Bulk density [3]: 0.45 g/mL
Tapped density [3]: 0.57 g/mL
Solubility (mg/mL) after 24 hours equilibration [4]: 2.1 mg/mL

CC#CC(=O)N1CCC[C@H]1c1nc(-c2ccc(C(=O)Nc3ccccn3)cc2)c2c(N)nccn12.O=P(O)(O)O [Phosphate, (S)-4-(8-amino-3-(1-(but-2-ynoyl)pyrrolidin-2-yl)imidazo[1,5-α]pyrazin-1-yl)-N-(pyridin-2-yl)benzamide phosphate]
Solubility (3 hours) [1]: 9800 µg/mL
Behavior in DVS: Δm (20-80% RH) [2]: ~0.7% (20-80% RH)
maximum water content (saturation) at about 95% RH ([2]; DVS): approximately 6.6%
Bulk density [3]: 0.33 g/mL
Tapped density [3]: 0.48 g/mL
Solubility (mg/mL) after 24 hours equilibration [4]: 15.0 mg/mL

CC#CC(=O)N1CCC[C@H]1c1nc(-c2ccc(C(=O)Nc3ccccn3)cc2)c2c(N)nccn12.O=S(=O)(O)O [sulfate salt, (S)-4-(8-amino-3-(1-(but-2-ynoyl)pyrrolidin-2-yl)imidazo[1,5-α]pyrazin-1-yl)-N-(pyridin-2-yl)benzamide sulfate]
water content (% found, experimental) [8]: 10.6%

CC#CC(=O)N1CCC[C@H]1c1nc(-c2ccc(C(=O)Nc3ccccn3)cc2)c2c(N)nccn12 [Form II, (S)-4-(8-amino-3-(1-(but-2-ynoyl)pyrrolidin-2-yl)imidazo[1,5-α]pyrazin-1-yl)-N-(pyridin-2-yl)benzamide]
maximum water content (saturation) at about 95% RH ([2]; DVS): about 10.4%
total weight gain observed between 0% RH and 80% RH ([2]; DVS): about 10%
hygroscopicity according to the European Pharmacopoeia (EP) classification ([2]; DVS, weight increase at 80% RH): hygroscopic (hygroscopic: ≥2% and <15%)
Cmax (maximum concentration) [9]: lower Cmax (maximum concentration) than Form I in all dogs
area under the plasma drug concentration-time curve (AUC) [9]: lower AUC than Form I in all dogs
intrinsic dissolution rate (IDR) ([10]; pH 2.5 HCl/NaCl buffer): 0.35 mg/cm^2/min
intrinsic dissolution rate (IDR) ([10]; simulated gastric fluid (SGF) (pH 1.2)): 5.4 mg/cm^2/min
aqueous solubility [11]: approximately 14 μg/mL
critical water activity (aw) ([12]; Form I versus trihydrate Form II, from aqueous solubilities): about 0.59
relative thermodynamic stability of Form I and Form II ([12]; depending on water activity): above this value Form II is more stable
